Assay [1] has as its target human blood-coagulation factor XIa (Homo sapiens (Human), UniProt P03951). As to the kind of experiment: In vitro inhibitory effect on the enzymatic activity of blood-coagulation factor XIa (S2366 substrate, absorbance at 405 nm). Format: biochemical. The settings on record: calculated from IC50 at substrate S2366 200 μM, Km=0.2 mM; IC50=Ki(1+[S]/Km). The procedure: The following method was used to test the in vitro inhibitory effect of the compounds of the present invention on the activity of human blood-coagulation factor XIa, expressed by the Inhibition constant Ki.
Solution preparation: reaction buffer: 0.03M HEPES acid, 0.145M NaCl, 0.005 M KCl, 0.1% PEG-8000, pH=7.5;
HEPES 8.499 g, NaCl 8.47 g, KCl 0.3725, PEG 8000 1 g, plus ddH2O 800 ml; the pH was adjusted to […] with HCl, and the volume was metered to 1 L.
S2366 substrate stock solution (2 mM): a volume of substrate […] was dissolved in 23 ml sterile deionized water, aliquoted, and stored at 4° C. in darkness.
S2366 substrate working solution: the stock solution was diluted by 4 folds with the reaction buffer before use.
FXIa working solution: 1 μl FXIa stock solution was added to 10 ml reaction buffer and thoroughly mixed before use.
Method: 15 μl test sample working solution (15 μl DMSO for the control group) and 75 μl FXIa working solution were added to a 96-well plate, and incubated at room temperature for 15 min. Then 60 μl S2366 substrate working solution was added to initiate the reaction. The absorbance at 405 nm for the test compounds was continually assayed once every 3 minutes, and a ΔA-time curve was plotted to calculate the slope as the reaction rate. In accordance with the following equation, IC50 of each test sample when the substrate concentration was 200 μM was calculated with spss 16.0. Inhibition (I %) and Ki of the test samples were calculated in accordance with the follow equations, and the results are shown in Table 1. I %=(V0−Vi)/V0×100 where V0 is the reaction rate in the control wells, and Vi is the reaction rate in the test sample wells; IC50=Ki(1+[S]/Km) where Km=0.2 mM, and [S] is the substrate concentration=200 μM.

For another assay, the system named is human plasma. As to the kind of experiment: In vitro assay of the blood coagulation function of human plasma (APTT). Format: biochemical. The conditions noted are these: concentration required to double the plasma APTT, read-out: aPTT EC2×. The procedure:
20 ml blood was taken by venipuncture from the ulnar vein of each of 20 healthy volunteers aged 25 to 35 years who had not taken any medicines within last one week, and was collected in a sodium citrate anticoagulation tube, with the ratio of anticoagulant to blood being 1:9 (v/v). Anticoagulation blood was taken and centrifuged at 200 g for 15 min, the supernatant therefrom was taken and centrifuged at 2000 g for 15 min, and then the supernatant therefrom was collected, well mixed, separated into 4 to 5 ml aliquots, and stored at −80° C. For APTT and PT assays, a plasma sample was taken and rapidly thawed in a 37° C. water bath, and 6 μl test compound working solution was added per 294 μl plasma, while 6 μl DMSO was added for the blank control. The compounds and plasma were well mixed, and assayed in a coagulometer. The concentration of the compounds (EC2×) required to double the plasma APTT was determined with origin 8.5, and the results are shown in Table 2.

pEC50, pKi: −log10 of the molar value.

Sequence of human blood-coagulation factor XIa (P03951 388-625): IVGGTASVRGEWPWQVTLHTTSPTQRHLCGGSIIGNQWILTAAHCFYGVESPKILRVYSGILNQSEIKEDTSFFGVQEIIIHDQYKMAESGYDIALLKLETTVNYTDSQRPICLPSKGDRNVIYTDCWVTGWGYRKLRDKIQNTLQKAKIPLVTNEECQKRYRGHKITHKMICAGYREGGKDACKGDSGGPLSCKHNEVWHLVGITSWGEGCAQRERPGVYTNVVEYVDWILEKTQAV
Sequence of human blood-coagulation factor XIa (P03951 19-387 partner): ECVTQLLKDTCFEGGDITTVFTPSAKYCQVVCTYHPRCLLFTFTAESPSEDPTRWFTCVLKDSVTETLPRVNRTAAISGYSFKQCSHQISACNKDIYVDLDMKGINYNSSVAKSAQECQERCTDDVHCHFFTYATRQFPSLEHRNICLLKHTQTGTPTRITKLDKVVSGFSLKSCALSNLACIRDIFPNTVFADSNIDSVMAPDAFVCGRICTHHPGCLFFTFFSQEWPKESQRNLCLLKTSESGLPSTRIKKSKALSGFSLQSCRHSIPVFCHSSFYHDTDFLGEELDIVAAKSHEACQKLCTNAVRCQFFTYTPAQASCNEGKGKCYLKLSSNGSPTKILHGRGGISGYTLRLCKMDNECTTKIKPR

In general, pKi refers to the negative decadic logarithm of the Ki, by convention in mol/L. `O=C(O)c1cc2cc(NC(=O)[C@@H]3CCc4cc(-c5cc(Cl)ccc5-n5cnnn5)cc(=O)n43)ccc2[nH]1` (single isomer, unassigned) [Compound 8-1]: the negative logarithm of the Ki (pKi) in assay [1] is 8.70. In the assay on human plasma, the pEC50 was 5.64.
On to `O=C(O)c1cc2cc(NC(=O)[C@H]3CCc4cc(-c5cc(Cl)ccc5-n5cnnn5)cc(=O)n43)ccc2[nH]1` (single isomer, unassigned) [Compound 8-2], for which the pKi in assay [1] is 5.99.
On the same count and under the same terms, with `O=C(O)c1ccc(NC(=O)C2CCc3nc(-c4cc(Cl)ccc4-n4cnnn4)cc(=O)n32)cc1` (stereo not shown) [Compound 1, N-(4-carboxyphenyl)-2-(5-chloro-2-(1H-tetrazol-1-yl)phenyl)-4-oxo-4,6,7,8-tetrahydropyrrolo[1,2-a]pyrimidine-6-carboxamide] the figure was 6.60.
Still for that read-out and setting: the result for `O=C(O)c1ccc(NC(=O)C2CCc3cc(-c4cc(Cl)ccc4-n4cnnn4)cc(=O)n32)cc1` (stereo not shown) [Compound 2, N-(4-carboxyphenyl)-7-(5-chloro-2-(1H-tetrazol-1-yl)phenyl)-5-oxo-1,2,3,5-tetrahydroindolizine-3-carboxamide] reads 7.17.
`O=C(O)c1cc2cc(NC(=O)C3CCc4cc(-c5cc(Cl)ccc5-n5cnnn5)cc(=O)n43)ccc2[nH]1` (stereo not shown) [Compound 3, N-(2-carboxyindol-5-yl)-7-(5-chloro-2-(1H-tetrazol-1-yl)phenyl)-5-oxo-1,2,3,5-tetrahydroindolizine-3-carboxamide]: the pKi in assay [1] is 8.05. Also, the pEC50 with human plasma is 5.21.
Turning to `O=C(O)c1cc2cc(NC(=O)C3CCc4nc(-c5cc(Cl)ccc5-n5cnnn5)cc(=O)n43)ccc2[nH]1` (stereo not shown) [Compound 4, N-(2-carboxyindol-5-yl)-2-(5-chloro-2-(1H-tetrazol-1-yl)phenyl)-4-oxo-4,6,7,8-tetrahydropyrrolo[1,2-a]pyrimidine-6-carboxamide], the pKi in assay [1] was 7.77. Also, in the assay on human plasma, the pEC50 was 5.02.
Take `O=C(Cn1ccc(-c2cc(Cl)ccc2-n2cnnn2)cc1=O)Nc1ccc(C(=O)O)cc1` [Compound 5]: the pKi in assay [1] is 6.84.
Still for that read-out and setting: the result for `O=C(Cn1ccc(-c2cc(Cl)ccc2-n2cnnn2)cc1=O)Nc1ccc2[nH]c(C(=O)O)cc2c1` [Compound 6] reads 7.85.
On to `O=C(O)c1cc2cc(NC(=O)C(Cc3ccccc3)n3ccc(-c4cc(Cl)ccc4-n4cnnn4)cc3=O)ccc2[nH]1` (stereo not shown) [Compound 9, 5-[[2-[4-[5-chloro-2-(tetrazol-1-yl)phenyl]-2-oxo-1-pyridyl]-3-phenyl-propanoyl]amino]-1H-indole-2-carboxylic Acid], for which, in assay [1], the pKi was 8.40. Besides, the pEC50 with human plasma was 5.19.

These data come from US10174020B2, “Pyridone or pyrimidone derivative, preparation method therefor and application thereof” (Sichuan Haisco Pharmaceutical Co., Ltd., priority 2014, dated 2019).
